Source: PMC11597260 (Pharmaceutics, 2024)
Where “and” joins values, the source holds several entries; their conditions need not be identical. Identical values can stand only once. Like-named read-outs stand apart in the source and are kept apart here.

What was measured:
[1] = Stability of spiked rat plasma QC samples under storage conditions; assay type: in vitro ADME; settings: for Stability, Accuracy (%): rat plasma, mean ± SD, n = 3; for stability of rat plasma samples under storage conditions: room temperature 4 h, 4 °C 8 h, −40 °C 7 days, three freeze–thaw cycles
[2] = Pharmacokinetic study in rats after oral and intratracheal administration of curcumin (plasma, LC-MS/MS); assay type: in vivo, Sprague-Dawley rats
Method: This preparation was then diluted with saline to obtain the desired concentrations for animal experiments.
Twelve male SD rats were randomly divided into two groups with six rats each, one for oral administration and the other for inhalation administration. […] Blood samples of approximately 200 μL were collected via intravenous routes at pre-determined time points: before administration and at 5, 15, 30, and 45 min, and 1, 2, 4, 6, and 8 h post-administration. The blood samples were immediately placed in heparinized EP tubes and kept on ice. […] The specific method of intratracheal administration is depicted in Figure 1, and details of the administration process are provided in the Supplementary Materials (Supplementary Figure S2). Blood samples of about 200 μL were collected at time points before administration and at 2, 5, 15, and 30 min, and 1, 2, 4, 6, 8, 12, and 24 h post-administration, also placed in heparinized EP tubes and kept on ice. The whole blood samples were centrifuged at 4 °C at 5000× g for 10 min within 30 min of collection. The plasma was then separated, aliquoted, and stored at −40 °C until analysis.
The major pharmacokinetic parameters including elimination half-life (t1/2), time to reach peak concentration (Tmax), peak concentration (Cmax), area under the curve (AUC), and mean residence time (MRT) were calculated using Phoenix WinNonlin software (Version 8.2, Certara, Radnor, PA, USA). A non-compartmental model was employed for these calculations, which is suitable for analyzing drug concentration data over time without assuming a specific compartmental structure. Graph Prism 8 was utilized to create graphs and plots that illustrate the pharmacokinetic behavior of the compounds of interest. Statistical analysis was performed using IBM SPSS Statistics 26 to conduct a t-test on the dose-normalized AUC(0−t) values from the two different administration groups. […] The results were considered statistically significant at a p-value less than 0.05, indicating a difference between the groups.

[3] = system: Caco-2 cell model; settings: cited from earlier work
[4] = oral curcumin in rats; cited from earlier work
[5] = 6 ng/mL, freeze-thaw three cycles
[6] = 6 ng/mL, room temperature for 4 h
[7] = 60 ng/mL, freeze-thaw three cycles
[8] = 60 ng/mL, room temperature for 4 h
[9] = 320 ng/mL, freeze-thaw three cycles
[10] = 320 ng/mL, room temperature for 4 h
[11] = rat plasma, i.t. curcumin 10 mg/kg (27.17 μmol/kg), mean ± SD, n = 6
[12] = rat plasma, i.t. curcumin 10 mg/kg, dose-normalized to oral dose (inhalation/0.5)
[13] = rat plasma, p.o. curcumin 20 mg/kg (54.34 μmol/kg), mean ± SD, n = 6
[14] = male, Sprague-Dawley, rat, plasma, inhaled or intranasal, 10 mg/kg

| Compound | Stability, Accuracy (%) ([1]; 6 ng/mL, 4 ℃ for 8 h) | Stability, Accuracy (%) ([1]; 6 ng/mL, 40 ℃ for 7 d) | Stability, Accuracy (%) [1, 5] [%] | Stability, Accuracy (%) [1, 6] [%] | Stability, Accuracy (%) ([1]; 60 ng/mL, 4 ℃ for 8 h) | Stability, Accuracy (%) ([1]; 60 ng/mL, 40 ℃ for 7 d) | Stability, Accuracy (%) [1, 7] [%] | Stability, Accuracy (%) [1, 8] [%] | Stability, Accuracy (%) ([1]; 320 ng/mL, 4 ℃ for 8 h) | Stability, Accuracy (%) ([1]; 320 ng/mL, 40 ℃ for 7 d) | Stability, Accuracy (%) [1, 9] [%] | Stability, Accuracy (%) [1, 10] [%] | stability of rat plasma samples under storage conditions [1] | AUC(0–t) [2, 11] [µM·h] | AUC(0–∞) [2, 11] [µM·h] | Cmax [2, 11] [nM] | MRT(0–t) [2, 11] [h] | Tmax [2, 11] [h] | t1/2 [2, 11] [h] | AUC(0–t)/0.5 [2, 12] [µM·h] | other results |
| --- | --- | --- | --- | --- | --- | --- | --- | --- | --- | --- | --- | --- | --- | --- | --- | --- | --- | --- | --- | --- | --- |
| COc1cc(/C=C/C(=O)CC(=O)/C=C/c2ccc(O[C@@H]3O[C@H](C(=O)O)[C@@H](O)[C@H](O)[C@H]3O)c(OC)c2)ccc1O [COG] | 88.10±4.59 | 104.10±7.03 | 89.23±3.79 | 90.20±4.16 | 90.43±2.97 | 87.13±2.10 | 87.93±2.81 | 95.53±2.01 | 93.60±2.52 | 88.93±0.99 | 87.87±2.32 | 95.73±2.23 | stable | 0.8863 ± 0.1783 | 0.9189 ± 0.1678 | 521 ± 203 | 4.33 ± 1.69 | 0.25 ± 0.00 | 3.10 ± 0.95 | 1.772 ± 0.3566 | exposure relative to COS ([2]; rat plasma, oral dosing of 20 mg/kg curcumin): 30–40 times; AUC(0–t) [2, 13]: 1.68 ± 0.2441 µM·h; AUC(0–∞) [2, 13]: 1.73 ± 0.2565 µM·h; Cmax [2, 13]: 830 ± 158 nM; MRT(0–t) [2, 13]: 2.54 ± 0.29 h; Tmax [2, 13]: 0.54 ± 0.71 h; t1/2 [2, 13]: 1.74 ± 0.57 h |
| COc1cc(/C=C/C(=O)CC(=O)/C=C/c2ccc(OS(=O)(=O)O)c(OC)c2)ccc1O [COS] | 100.63±2.40 | 90.73±1.36 | 93.73±4.97 | 99.67±4.83 | 93.27±2.31 | 94.53±0.40 | 93.23±0.96 | 96.63±1.39 | 99.23±1.50 | 92.43±5.58 | 93.80±0.46 | 100.77±0.65 | stable | 1.377 ± 0.6043 | 1.444 ± 0.6249 | 416 ± 138 | 5.14 ± 1.03 | 0.38 ± 0.14 | 5.02 ± 1.27 | 2.754 ± 1.208 | exposure, AUC(0–t)/0.5 intratracheal relative to AUC(0–t) oral ([2]; rat plasma, i.t. 10 mg/kg dose-normalized vs p.o. 20 mg/kg): ~50 fold; AUC(0–t) [2, 13]: 0.04978 ± 0.02714 µM·h; AUC(0–∞) [2, 13]: 0.0577 ± 0.02778 µM·h; Cmax [2, 13]: 23.4 ± 9.4 nM; MRT(0–t) [2, 13]: 2.37 ± 0.98 h; Tmax [2, 13]: 1.13 ± 0.96 h; t1/2 [2, 13]: 1.11 ± 0.87 h |
| COc1cc(/C=C/C(=O)CC(=O)/C=C/c2ccc(O)c(OC)c2)ccc1O [CUR, Curcumin] | 96.00±2.57 | 105.13±4.11 | 102.33±7.46 | 92.53±2.91 | 97.73±0.83 | 97.40±0.36 | 95.20±2.19 | 98.57±2.22 | 102.67±0.06 | 93.87±3.21 | 90.10±4.20 | 103.93±1.07 |  |  |  |  |  |  |  |  | Papp [3]: 3.18 ± 1.08 × 10^−6 cm/s; bioavailability [4]: less than 1%; AUC(0-inf) [2, 14]: 1.38 ± 0.37 µM·h; Cmax [2, 14]: 2880 ± 742 nM; half-life [2, 14]: 3.73 ± 1.03 h; AUC(0-t) ([2]; male, Sprague-Dawley, rat, plasma, inhaled or intranasal, 10 mg/kg, rat plasma, i.t. curcumin 10 mg/kg (27.17 μmol/kg), mean ± SD, n = 6, read-out: AUC(0–t)): 1.33 ± 0.374 µM·h; AUC(0-t) ([2]; male, Sprague-Dawley, rat, plasma, inhaled or intranasal, 10 mg/kg, rat plasma, i.t. curcumin 10 mg/kg, dose-normalized to oral dose (inhalation/0.5), read-out: AUC(0–t)/0.5): 2.65 ± 0.749 µM·h; MRT last ([2]; male, Sprague-Dawley, rat, plasma, inhaled or intranasal, 10 mg/kg, read-out: MRT(0–t)): 2.01 ± 0.78 h; Tmax ([2]; male, Sprague-Dawley, rat, plasma, inhaled or intranasal, 10 mg/kg, read-out: Tmax): 0.05 ± 0.03 h; AUC(0-t) ([2]; male, Sprague-Dawley, rat, plasma, po, 20 mg/kg, rat plasma, p.o. curcumin 20 mg/kg, calculated using the lower limit of quantification over 6 h, read-out: AUC(0–t)): < 0.0326 µM·h; plasma levels of the parent compound (below lower limit of quantification) ([2]; rat plasma, oral dosing of 20 mg/kg curcumin, 20 mg/kg): < 2 ng/mL and < 5.434 nM |
